Where “and” joins values, the source holds several entries; their conditions need not be identical. Identical values can stand only once. Entries after “also recorded” stand apart in the source; their conditions may differ. Peptide text beside a SMILES is read from it.

The target in data set [1] is T1, human CB1 receptor (Homo sapiens, UniProt P21554).
T1 construct: expressed in transfected cells; host or cells: CHO cells
As to the kind of experiment: In vitro radioligand binding, [3H] CP 55940, recombinant CHO cells. As to the method:
In vitro binding assays were performed using recombinant CHO cells expressing the human CB1 receptor and the [3H]
Results are expressed as the percentage of binding of the specific control according to formula: […]
And the percentual inhibition of binding of specific control obtained in the presence of the compound of the invention is:
IC50 values (concentration that causes half of maximal inhibition of specific control binding) and Hill (nH) coefficients were determined by nonlinear regression of the competition curves generated with the mean values of the replicates using the Hill equation:
Where Y=specific binding, A=asymptotic left of curve, D=asymptotic right of curve, C=compound concentration, C50=IC50 and nH=curve coefficient/slope factor. This analysis was performed using the Hill software validated by comparison with data generated by Sigmaplot 4.0 software. Inhibition constants (Ki) were calculated using the equation of Chen Prusoff:
Where L=concentration of the radioligand in the assay; KD=affinity of the radioligand for the receptor. A graph is used to determine the KD.

A short description of data set [2]: Stability tests under extreme conditions (freezing 24 hours; heating at 100° C. for 10 minutes), HPLC. Format: physicochemical. The source says:
In the vertical axis the area of the HPLC peak is shown. […] Statistical significance data are also shown, the asterisks indicating: (*) P<0.05 vs Control (***) P<0.005 vs Control; (****) P<0.0001 vs Control.

Data set [3] has as its system pilocarpine model. As to the kind of experiment: Pilocarpine model, oral pre-treatment (salivation, first signal, seizure, death/survival). Format: in vivo, Mus musculus. Set-up: time of occurrence of the first seizure: unit not given here. How it is done:
In some examples, the neuromodulatory/neuroprotective/anticonvulsive effects of the composition of the invention have been evaluated in vivo by oral administration to animals. The pharmaceutical composition of the invention was administered to mammals (Mus musculus or mouse) with an oral dose of treatment with different embodiments of the compound of the invention, compared to other compounds or to saline control. In these experiments, the test compounds were administered orally 10 minutes prior to (intraperitoneal) administration of pilocarpine. Pilocarpine hydrochloride (320 mg/kg, Merck), dissolved in 0.9% sterile saline, was given intraperitoneally for induction of SE (status epileticus) (Turski et al., 1983). In the Turski model, the neurotoxic effects begin about 15-25 minutes after the injection of Pilo, with the occurrence of motor and limbic seizures, the animals evolving to a state of continuous (clonic) seizures that characterize SE Sanabria and Cavalheiro, 2000).
In this embodiment, the anticonvulsive effect of the composition of the invention prepared according to Example 2 was evaluated by prior administration of the inventive composition and subsequent administration of pilocarpine to animals. FIG. 4 presents the results of the pilocarpine model, indicating the time for the first salivation with the administration of control, cannabidiol (30 mg/kg), the compound of the invention R1-N-AA1-K-AA2-R2, in which embodiment is the tetrapeptide of SEQ ID No. 1 (500 μg/kg).
In this embodiment, the neuromodulatory effect of the composition of the invention prepared according to Example 2 was evaluated by prior administration of the inventive composition and subsequent administration of pilocarpine to animals. Other test compounds were also evaluated as described below. Administration of pilocarpine leads to severe brain injury, neurotoxicity and usually culminates in the death of the animals. This substance was used in the experiments described below but its harmful neuronal/encephalic effects were inhibited by the prior administration of the composition of the present invention: the vast majority of the animals subjected to these experiments had no symptoms related to brain lesions and survived without apparent damage, in contrast to groups of animals treated with other known substances.
The composition of the invention was prepared according to Example 2 with due concentration correction, for comparison of the effects of SEQ ID No. 1, SEQ ID No. 7 and NFK, such compounds having been previously administered to the animal groups.
In this embodiment, the anticonvulsant effect of different embodiments of the compound of the invention with the structure represented by SEQ ID No. 1, SEQ ID No. 7, NFK, FKF, FKL, as well as the NF, FK, KF and KL dipeptides were evaluated in the pilocarpine model.

For data set [4], the system named is CB1 receptor. The data set is described as follows: Screening with anti-CB1 antibodies sensitive to activation/conformational changes, ELISA on Striatum membranes. As to conditions: ligands 1 μM; Assay 1-5. Type of data set: binding. How it is done:
Antibodies sensitive to CB1 receptor activation were generated and characterized by their specificities. For screening compounds, Striatum membranes (5 μg per well) were plated on NUNC-Immuno 96-well plates (Nalge-Nunc) and dried at room temperature. Membranes were washed with PBS (phosphate buffered saline) and incubated with or without different ligands (1 μM) and the extent of receptor recognition by the antibodies was measured by ELISA. The results of the tests are shown in Table 5, which indicates the % binding to the CB1 receptor in relation to control: […]
(In general: An ELISA detects its analyte on a solid surface through an enzyme-linked reagent.)

Data set [5] deals with T2, human CB2 receptor (Homo sapiens, UniProt P34972).
T2 construct: expressed in transfected cells; host or cells: CHO cells
As to the kind of experiment: In vitro radioligand binding, [3H] WIN55212-2, recombinant CHO cells. Also on record: % of inhibition of binding of specific control, 1st/2nd measurement: unit of the concentration uncertain. The following applies: for % of inhibition of binding of specific control, 1st/2nd measurement: radioligand agonist WIN 55212-2. How it is done:
(§1) In vitro binding assays were performed using recombinant CHO cells expressing human CB2 receptor and [3H]

For data set [6], the system named is pain threshold. As to the kind of experiment: Pain threshold model, pressure apparatus on right paw. Format: in vivo, rats. As to conditions: for pain threshold, force: oral, 0.5 to 0.25 mg/kg, individual animals. How it is done:
The compounds of the present invention have also been tested as analgesics or neuropathic pain modulators. To that end, the compounds PVNFKF, PVNFK, VNFKF, SEQ ID No. 1 were tested in the pain threshold model. The pain threshold was measured using a pressure apparatus (Ugo Basile, Italy), essentially as described (Randall and Selitto, 1957). Briefly, a force of increasing magnitude (16 g/s) was applied to the back of the right paw of rats. When animals react by kicking, the force in grams required to induce this response is the threshold of pain. Antinoniceptive activity was expressed as the increase in pain threshold compared to control animals.
The compounds of the invention were administered orally to the animals at doses of 0.5 to 0.25 mg/kg and saline was used as a control.

Data set [7] relates to experimental autoimmune encephalomyelitis (EAE). The data set is described as follows: EAE model of Multiple Sclerosis, MOG induction, Endopeptidase 24.15 knockout mice. Format: in vivo. The following applies: 24.15 knock out mice, FIG. 25. The source says: In this embodiment, transgenic mice knockout of the Endopeptidase 24.15 gene were challenged with MOG (Myelin Oligodendrocyte Glycoprotein), with administration of the compound of the invention SEQ ID No. 1 or saline as a control. After the introduction of the disease, a daily evaluation of the symptoms was made, according to Table 11 below.

The target in data set [8] is T3, recombinant human CB2 cannabinoid receptor (human, UniProt P34972 1-360).
T3 construct: whole, on cells; also called human CB2 receptor
As to the kind of experiment: [3H]WIN 55212-2 radioligand displacement on CHO cells expressing human CB2. How it is done: as §1
(Loss of bound radioactivity is the signal in a displacement assay; it reports binding, not function.)

Where [9] appears, read: FIG. 6, 500 μg/kg before pilocarpine.

T2 sequence (P34972 whole entry): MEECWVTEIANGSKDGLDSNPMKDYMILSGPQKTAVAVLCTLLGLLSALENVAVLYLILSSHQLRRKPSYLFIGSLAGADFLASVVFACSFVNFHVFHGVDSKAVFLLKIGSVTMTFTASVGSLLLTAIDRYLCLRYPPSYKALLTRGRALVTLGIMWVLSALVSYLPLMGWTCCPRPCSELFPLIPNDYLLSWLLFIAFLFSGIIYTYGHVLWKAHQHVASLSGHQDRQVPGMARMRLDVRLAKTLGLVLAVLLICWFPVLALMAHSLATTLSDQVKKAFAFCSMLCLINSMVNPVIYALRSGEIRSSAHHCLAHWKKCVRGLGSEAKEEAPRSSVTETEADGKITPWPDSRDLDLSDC
T1 sequence (P21554 whole entry): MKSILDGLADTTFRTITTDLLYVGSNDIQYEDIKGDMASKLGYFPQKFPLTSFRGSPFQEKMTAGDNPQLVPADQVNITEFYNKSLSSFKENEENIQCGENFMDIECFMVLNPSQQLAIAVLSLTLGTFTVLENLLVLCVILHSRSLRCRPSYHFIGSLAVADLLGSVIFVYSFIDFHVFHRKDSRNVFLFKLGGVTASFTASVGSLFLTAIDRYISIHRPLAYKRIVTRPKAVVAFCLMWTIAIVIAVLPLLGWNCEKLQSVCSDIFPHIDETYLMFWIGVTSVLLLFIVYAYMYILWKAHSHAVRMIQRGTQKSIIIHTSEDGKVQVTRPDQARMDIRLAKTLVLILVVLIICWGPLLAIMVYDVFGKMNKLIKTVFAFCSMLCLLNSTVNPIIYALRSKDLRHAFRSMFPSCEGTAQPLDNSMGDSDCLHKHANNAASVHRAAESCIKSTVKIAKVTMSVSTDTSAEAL
T3 sequence (P34972 whole entry): as the sequence (P34972 whole entry) above

In the case of `CCCCCCC(C)(C)c1ccc([C@@H]2C[C@H](O)CC[C@H]2CCCO)c(O)c1` [CP 55940, reference compound], in data set [1] (reference radioligand agonist), the nH is 1.
For `NCCCCC(NC(=O)C(Cc1ccccc1)NC(=O)C(N)CC(N)=O)C(=O)NC(Cc1ccccc1)C(=O)O` (stereo not drawn) [SEQ ID No. 1] (H-NFKF-OH; configuration not given here), in data set [2] (control sample, n=2), the “area of the HPLC peak, control” value stood at 120. For the same molecule, in data set [2] (freezing for 24 h), the “area of the HPLC peak after freezing” value is 100. Besides, the “part lost or degraded by freezing” value in data set [2] (freezing for 24 h) amounted to 16.7%. Moreover, in data set [2] (heating at 100° C. for 10 minutes), the “degradation upon heating (in words)” value is recorded as “did not suffer statistically significant degradation”. Further, in data set [3] (FIG. 4, cannabidiol 30 mg/kg, SEQ ID No. 1 500 μg/kg), the “time for first salivation vs control (significance)” value is recorded as “does not present statistical significance”. In data set [3] (setting [9]), the “number of animals that died” value is recorded as “two”. In addition, the “remaining animals alive for more than a week” value in data set [3] (setting [9]) is given as 3 animals. The “prostration and nasal bleeding” value in data set [3] (SEQ ID No. 1 500 μg/kg, cannabidiol 30 mg/kg) is given as “no occurrence of prostration or nasal bleeding; also recorded: non-occurrence of prostration or nasal bleeding”. Also, in data set [3] (Table 1, oral, 10 minutes prior to pilocarpine 320 mg/kg i.p., individual animals), the “time of occurrence of the first salivation” value was 3.2 min and 1.83 min and 1.97 min and 2.73 min and 1.58 min. In addition, the “time of occurrence of the first signal” value in data set [3] (Table 2, oral, 10 minutes prior to pilocarpine 320 mg/kg i.p., individual animals) was 12.33 min and 8.43 min and 10.23 min and 13.53 min and 9.9 min. For the same molecule, in data set [3] (Table 3, oral, 10 minutes prior to pilocarpine 320 mg/kg i.p., individual animals), the “time of occurrence of the first seizure” value is 17.88 and 15.17 and 19.95 and 15.18 and 16. The “time of death occurrence” value in data set [3] (Table 4, oral, 10 minutes prior to pilocarpine 320 mg/kg i.p., individual animals) is 18.92 min and 20 min and 15.18 min and 10.87 min. For the same molecule, the “% binding to the CB1 receptor in relation to control” value in data set [4] was 90.27% and 84.41% and 90.19% and 77.88% and 65.39%. Further, in data set [1] (1 µM, radioligand agonist CP55940, read-out: % of inhibition of binding of specific control, Mean value), the inhibition (as a rule, the drop in the measured response relative to a control, in per cent) at 1 µM was -74.6%. Further, the inhibition at 10 µM in data set [1] (10 µM, radioligand agonist CP55940, read-out: % of inhibition of binding of specific control, Mean value) is -9.9%. In addition, the “% of inhibition of binding of specific control, 1st/2nd measurement” value is 3.5% and 0.3% in data set [5] (1 (unit uncertain)); 13.1% in data set [5] (10 (unit uncertain)). Moreover, the “modulation in binding of the radioligand (in words)” value in data set [5] (conditions tested) is reported as “did not provide significant modulation”. Further, the “pain threshold, force” value in data set [6] (After 3 h) was 80 grams (2×) and 70 grams (3×) and 75 grams; in data set [6] (Immediate), 70 grams and 75 grams (3×) and 80 grams and 60 grams. The “greater pain threshold compared to PVNFKF” value in data set [6] (after 3 h) amounted to 50.1%. Besides, the “clinical symptoms (Clinical Score)” value in data set [7] was “impressive reduction of clinical symptoms”.

B1: tetrapeptide SEQ ID No. 1 (peptide)
peptide: NFKF
notes: Synthetic peptide; for the radioligand assays it was a 10 mM stock solution in DMSO
In the case of B1, the binding result in data set [8] is “no binding (tested: 1 and 10 µM)”.
